Reference: the kinase profiling compilation of Christmann-Franck et al. (2016)

Experiments:
Assay in all cases: radiometric filter-binding kinase assay
AURKB (human) = AURKB (human) (UniProt Q96GD4); details: compound 100.0 µM
BRSK2 (human) = BRSK2 (human) (UniProt Q8IWQ3); details: compound 100.0 µM
CAMKK2 (human) = CAMKK2 (human) (UniProt Q96RR4); details: compound 100.0 µM
CHEK1 (human) = CHEK1 (human) (UniProt O14757); details: compound 100.0 µM
CSNK2A1 (human) = CSNK2A1 (human) (UniProt P68400); details: compound 100.0 µM
CaMK1 (human) = CaMK1 (human) (UniProt Q14012); details: compound 100.0 µM
DAPK1 (human) = DAPK1 (human) (UniProt P53355); details: compound 100.0 µM
DYRK1A (human) = DYRK1A (human) (UniProt Q13627); details: compound 100.0 µM
DYRK3 (human) = DYRK3 (human) (UniProt O43781); details: compound 100.0 µM
EPHB2 (human) = EPHB2 (human) (UniProt P29323); details: compound 100.0 µM
FGFR1 (human) = FGFR1 (human) (UniProt P11362); details: compound 100.0 µM
GCK (human) = GCK (human) (UniProt Q12851); details: compound 100.0 µM
HIPK1 (human) = HIPK1 (human) (UniProt Q86Z02); details: compound 100.0 µM
HIPK2 (human) = HIPK2 (human) (UniProt Q9H2X6); details: compound 100.0 µM
IGF1R (human) = IGF1R (human) (UniProt P08069); details: compound 100.0 µM
JAK2 JH1 JH2 (human) = JAK2 JH1 JH2 (human) (UniProt O60674); details: compound 100.0 µM
LCK (mouse) = details: compound 100.0 µM; accession and sequence are those of the human protein
MAPK10 (human) = MAPK10 (human) (UniProt P53779); details: compound 100.0 µM
MAPK11 (human) = MAPK11 (human) (UniProt Q15759); details: compound 100.0 µM
MAPK13 (human) = MAPK13 (human) (UniProt O15264); details: compound 100.0 µM
MAPK8 (human) = MAPK8 (human) (UniProt P45983); details: compound 100.0 µM
MAPKAPK5 (human) = MAPKAPK5 (human) (UniProt Q8IW41); details: compound 100.0 µM
MARK3 (human) = MARK3 (human) (UniProt P27448); details: compound 100.0 µM
MINK1 (human) = MINK1 (human) (UniProt Q8N4C8); details: compound 100.0 µM
MKNK1 (human) = MKNK1 (human) (UniProt Q9BUB5); details: compound 100.0 µM
[1] = test system: PAK2 (human), Q13177 [T402E]; details: compound 100.0 µM
PHKG1 (human) = PHKG1 (human) (UniProt Q16816); details: compound 100.0 µM
PIM3 (human) = PIM3 (human) (UniProt Q86V86); details: compound 100.0 µM
ROCK2 (rat) = details: compound 100.0 µM; accession and sequence are those of the human protein
[2] = test system: SGK1 (human), O00141 [S422D]; details: compound 100.0 µM
SRPK1 (human) = SRPK1 (human) (UniProt Q96SB4); details: compound 100.0 µM
STK3 (human) = STK3 (human) (UniProt Q13188); details: compound 100.0 µM
TAOK1 (human) = TAOK1 (human) (UniProt Q7L7X3); details: compound 100.0 µM
TBK1 (human) = TBK1 (human) (UniProt Q9UHD2); details: compound 100.0 µM
YES1 (human) = YES1 (human) (UniProt P07947); details: compound 100.0 µM

HIPK1 (human), sequence (Q86Z02 whole entry, looked up): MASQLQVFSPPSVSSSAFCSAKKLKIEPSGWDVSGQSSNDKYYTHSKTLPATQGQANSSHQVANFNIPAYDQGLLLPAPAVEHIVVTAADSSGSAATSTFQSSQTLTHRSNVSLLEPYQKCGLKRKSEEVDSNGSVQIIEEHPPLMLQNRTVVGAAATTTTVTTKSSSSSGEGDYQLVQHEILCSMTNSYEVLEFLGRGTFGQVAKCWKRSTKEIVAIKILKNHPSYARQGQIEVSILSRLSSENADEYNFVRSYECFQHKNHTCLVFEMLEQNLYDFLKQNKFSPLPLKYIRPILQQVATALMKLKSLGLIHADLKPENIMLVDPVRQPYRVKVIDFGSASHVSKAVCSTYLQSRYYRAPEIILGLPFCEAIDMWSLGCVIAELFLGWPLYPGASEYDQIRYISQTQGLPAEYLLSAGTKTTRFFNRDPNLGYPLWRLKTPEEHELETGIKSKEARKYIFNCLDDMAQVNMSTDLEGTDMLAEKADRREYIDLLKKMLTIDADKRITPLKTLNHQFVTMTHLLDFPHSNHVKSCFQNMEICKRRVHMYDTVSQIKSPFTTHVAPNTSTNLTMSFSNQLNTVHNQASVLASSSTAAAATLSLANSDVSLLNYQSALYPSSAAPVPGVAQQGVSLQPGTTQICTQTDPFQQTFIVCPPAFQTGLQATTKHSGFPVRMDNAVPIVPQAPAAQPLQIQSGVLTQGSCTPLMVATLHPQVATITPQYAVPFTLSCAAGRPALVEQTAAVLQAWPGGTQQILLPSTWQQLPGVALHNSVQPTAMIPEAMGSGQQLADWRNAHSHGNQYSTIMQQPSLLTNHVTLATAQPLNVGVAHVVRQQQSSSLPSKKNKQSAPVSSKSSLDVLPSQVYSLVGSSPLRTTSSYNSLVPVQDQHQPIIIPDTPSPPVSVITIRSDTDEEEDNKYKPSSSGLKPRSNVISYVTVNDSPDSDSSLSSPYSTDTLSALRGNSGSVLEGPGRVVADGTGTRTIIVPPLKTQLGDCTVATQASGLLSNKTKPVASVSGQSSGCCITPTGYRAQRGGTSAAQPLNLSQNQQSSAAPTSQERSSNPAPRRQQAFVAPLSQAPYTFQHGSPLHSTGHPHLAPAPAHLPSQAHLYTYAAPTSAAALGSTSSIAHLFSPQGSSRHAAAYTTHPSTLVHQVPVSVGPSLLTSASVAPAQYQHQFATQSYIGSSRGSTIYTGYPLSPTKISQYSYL
AURKB (human), sequence (Q96GD4 whole entry, looked up): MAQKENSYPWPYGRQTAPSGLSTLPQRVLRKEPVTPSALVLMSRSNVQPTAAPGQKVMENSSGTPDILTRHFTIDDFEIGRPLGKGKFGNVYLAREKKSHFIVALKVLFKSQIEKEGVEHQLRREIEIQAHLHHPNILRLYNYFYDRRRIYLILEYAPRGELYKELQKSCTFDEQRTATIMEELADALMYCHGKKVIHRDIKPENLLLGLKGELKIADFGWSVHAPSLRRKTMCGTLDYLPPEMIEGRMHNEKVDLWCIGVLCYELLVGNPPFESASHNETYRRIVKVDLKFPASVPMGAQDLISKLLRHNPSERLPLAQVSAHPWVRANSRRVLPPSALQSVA
MINK1 (human), sequence (Q8N4C8 whole entry, looked up): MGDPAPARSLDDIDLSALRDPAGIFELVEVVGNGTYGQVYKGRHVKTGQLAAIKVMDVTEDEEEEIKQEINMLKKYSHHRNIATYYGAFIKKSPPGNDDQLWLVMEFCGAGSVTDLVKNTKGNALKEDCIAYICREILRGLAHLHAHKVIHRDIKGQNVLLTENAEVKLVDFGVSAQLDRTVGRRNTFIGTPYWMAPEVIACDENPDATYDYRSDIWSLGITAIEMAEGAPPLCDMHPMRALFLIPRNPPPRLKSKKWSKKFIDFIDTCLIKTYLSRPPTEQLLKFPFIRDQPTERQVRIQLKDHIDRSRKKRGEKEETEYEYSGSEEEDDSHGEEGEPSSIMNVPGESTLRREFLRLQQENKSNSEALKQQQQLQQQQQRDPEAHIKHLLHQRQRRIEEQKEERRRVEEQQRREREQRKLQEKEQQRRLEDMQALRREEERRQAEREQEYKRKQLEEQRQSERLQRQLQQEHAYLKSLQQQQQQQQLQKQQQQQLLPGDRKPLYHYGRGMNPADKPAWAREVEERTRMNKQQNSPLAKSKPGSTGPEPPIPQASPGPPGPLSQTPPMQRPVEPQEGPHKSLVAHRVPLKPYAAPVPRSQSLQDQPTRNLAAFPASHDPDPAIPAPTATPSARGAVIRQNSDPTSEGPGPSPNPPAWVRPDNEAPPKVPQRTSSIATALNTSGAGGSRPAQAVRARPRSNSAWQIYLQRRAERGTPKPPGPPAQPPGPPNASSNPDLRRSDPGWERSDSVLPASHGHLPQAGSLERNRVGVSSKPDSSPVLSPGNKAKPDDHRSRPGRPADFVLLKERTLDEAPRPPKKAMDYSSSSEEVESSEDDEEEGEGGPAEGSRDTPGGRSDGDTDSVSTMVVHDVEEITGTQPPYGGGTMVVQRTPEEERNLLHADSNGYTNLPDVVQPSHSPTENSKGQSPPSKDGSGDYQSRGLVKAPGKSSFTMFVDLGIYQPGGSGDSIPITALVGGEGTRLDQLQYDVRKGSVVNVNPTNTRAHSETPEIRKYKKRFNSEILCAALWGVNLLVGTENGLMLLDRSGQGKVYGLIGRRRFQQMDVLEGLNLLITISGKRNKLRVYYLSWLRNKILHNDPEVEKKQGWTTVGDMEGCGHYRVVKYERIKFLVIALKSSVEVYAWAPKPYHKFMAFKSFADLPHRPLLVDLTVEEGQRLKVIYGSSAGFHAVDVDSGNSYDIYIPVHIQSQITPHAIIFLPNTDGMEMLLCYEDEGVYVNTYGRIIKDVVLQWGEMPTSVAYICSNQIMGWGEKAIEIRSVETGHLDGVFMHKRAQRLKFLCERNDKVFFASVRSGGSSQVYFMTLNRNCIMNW
IGF1R (human), sequence (P08069 whole entry, looked up): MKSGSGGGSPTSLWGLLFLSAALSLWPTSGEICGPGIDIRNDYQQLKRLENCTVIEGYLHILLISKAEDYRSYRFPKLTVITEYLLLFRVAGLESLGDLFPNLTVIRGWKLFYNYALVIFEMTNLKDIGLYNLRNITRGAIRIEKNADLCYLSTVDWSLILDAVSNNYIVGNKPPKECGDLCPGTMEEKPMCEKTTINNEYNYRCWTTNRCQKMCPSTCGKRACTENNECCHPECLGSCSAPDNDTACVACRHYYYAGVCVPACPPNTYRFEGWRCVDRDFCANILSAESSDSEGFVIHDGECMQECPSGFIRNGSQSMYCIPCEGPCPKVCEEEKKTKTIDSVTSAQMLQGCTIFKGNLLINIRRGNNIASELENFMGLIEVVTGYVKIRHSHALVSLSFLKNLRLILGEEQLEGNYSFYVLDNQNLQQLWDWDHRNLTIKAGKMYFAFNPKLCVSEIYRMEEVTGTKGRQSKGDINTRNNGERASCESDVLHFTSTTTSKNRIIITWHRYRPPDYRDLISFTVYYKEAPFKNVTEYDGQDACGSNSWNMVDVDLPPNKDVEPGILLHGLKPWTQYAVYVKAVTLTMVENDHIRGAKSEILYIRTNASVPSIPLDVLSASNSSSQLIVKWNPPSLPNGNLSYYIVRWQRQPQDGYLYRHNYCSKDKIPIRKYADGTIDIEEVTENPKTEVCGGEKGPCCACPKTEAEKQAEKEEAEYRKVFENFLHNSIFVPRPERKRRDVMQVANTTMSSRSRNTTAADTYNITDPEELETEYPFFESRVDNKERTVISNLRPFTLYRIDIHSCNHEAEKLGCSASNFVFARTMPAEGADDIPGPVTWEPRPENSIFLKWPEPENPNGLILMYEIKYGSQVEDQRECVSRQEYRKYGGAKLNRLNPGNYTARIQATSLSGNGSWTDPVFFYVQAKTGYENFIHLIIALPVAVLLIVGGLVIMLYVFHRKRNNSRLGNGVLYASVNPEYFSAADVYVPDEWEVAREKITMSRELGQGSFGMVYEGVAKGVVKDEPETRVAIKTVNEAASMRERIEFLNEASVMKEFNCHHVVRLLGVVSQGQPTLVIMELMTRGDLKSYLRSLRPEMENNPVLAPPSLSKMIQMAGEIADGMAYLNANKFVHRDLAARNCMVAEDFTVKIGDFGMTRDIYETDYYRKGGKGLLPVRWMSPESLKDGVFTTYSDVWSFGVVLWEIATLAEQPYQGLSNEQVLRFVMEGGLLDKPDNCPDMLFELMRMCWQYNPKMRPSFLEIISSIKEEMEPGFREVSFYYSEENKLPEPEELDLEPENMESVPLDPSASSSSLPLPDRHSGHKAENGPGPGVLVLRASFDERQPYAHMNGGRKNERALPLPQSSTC
DYRK3 (human), sequence (O43781 whole entry, looked up): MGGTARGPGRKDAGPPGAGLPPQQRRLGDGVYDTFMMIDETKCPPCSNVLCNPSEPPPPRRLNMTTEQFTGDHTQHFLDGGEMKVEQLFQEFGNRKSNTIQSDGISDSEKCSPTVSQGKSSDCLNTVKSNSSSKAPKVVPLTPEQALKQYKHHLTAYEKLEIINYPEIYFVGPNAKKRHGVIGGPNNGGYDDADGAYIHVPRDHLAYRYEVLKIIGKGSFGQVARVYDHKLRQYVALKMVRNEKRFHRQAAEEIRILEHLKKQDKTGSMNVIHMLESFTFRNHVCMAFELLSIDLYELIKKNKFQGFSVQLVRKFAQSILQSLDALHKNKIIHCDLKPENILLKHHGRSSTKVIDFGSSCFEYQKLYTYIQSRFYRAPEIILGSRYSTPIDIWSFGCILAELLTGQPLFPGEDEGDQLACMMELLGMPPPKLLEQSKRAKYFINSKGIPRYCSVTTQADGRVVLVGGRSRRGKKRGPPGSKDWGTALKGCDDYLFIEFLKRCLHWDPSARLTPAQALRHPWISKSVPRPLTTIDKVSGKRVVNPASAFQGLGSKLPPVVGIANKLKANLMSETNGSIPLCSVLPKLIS

Compound Cc1cc(N=Nc2cc(S(=O)(=O)O)c(C)cc2C)c(N)cc1O has a residual activity (AURKB (human)) of 93%, a residual activity (BRSK2 (human)) of 46% and a residual activity (CAMKK2 (human)) of 99%. For the same compound, the residual activity (CHEK1 (human)) was 196%, the residual activity (CSNK2A1 (human)) was 51% and the residual activity (CaMK1 (human)) was 45%. The residual activity (DAPK1 (human)) was 82%, the residual activity (DYRK1A (human)) was 113% and the residual activity (DYRK3 (human)) was 65%. The residual activity (EPHB2 (human)) was 96%, the residual activity (FGFR1 (human)) was 59% and the residual activity (GCK (human)) was 80%. The residual activity (HIPK1 (human)) was 94%, the residual activity (HIPK2 (human)) was 42% and the residual activity (IGF1R (human)) was 109%. It also gave a residual activity (JAK2 JH1 JH2 (human)) of 71%, a residual activity (LCK (mouse)) of 112% and a residual activity (MAPK10 (human)) of 100%. The residual activity (MAPK11 (human)) was 58%, the residual activity (MAPK13 (human)) was 109% and the residual activity (MAPK8 (human)) was 113%. For the same compound, the residual activity (MAPKAPK5 (human)) was 70%, the residual activity (MARK3 (human)) was 96% and the residual activity (MINK1 (human)) was 62%. The residual activity (MKNK1 (human)) was 99%, the residual activity [1] was 100% and the residual activity (PHKG1 (human)) was 86%. For the same compound, the residual activity (PIM3 (human)) was 45%, the residual activity (ROCK2 (rat)) was 105% and the residual activity [2] was 52%. For the same compound, the residual activity (SRPK1 (human)) was 59%, the residual activity (STK3 (human)) was 81% and the residual activity (TAOK1 (human)) was 109%. It also gave a residual activity (TBK1 (human)) of 94% and a residual activity (YES1 (human)) of 52%.
